Assay results as given in article PMC8708875 (Pharmaceutics, 2021).

Tested on: differentiated C2C12 myotubes
Experiment: qPCR gene expression in differentiated C2C12 myotubes
Assay type: cell-based, mouse
Settings: Ric peptides 100 µM, insulin positive control, qPCR normalised to GAPDH, control = 1, mean ± SEM
Protocol: C2C12 cells were used as a well-described model of skeletal muscle to evaluate the effect of peptides in gene expression, cell signaling, and glucose uptake. These cells were kindly provided by Prof. Patricia Brum, School of Physical Education and Prof. Anselmo Moriscot, Biomedical Science Institute, University of São Paulo, São Paulo, Brazil. C2C12 cells were cultured and maintained in high glucose Dulbecco's modified Eagle's medium (DMEM; Thermo Fisher Scientific, São Paulo, SP, Brazil) supplemented with 10% fetal bovine serum (FBS), 100 U/mL penicillin, and […] streptomycin in a humidified atmosphere of 5% CO2 at 37 °C. The cells were used in low pass (between passages 2 and 4) for all experiments to maintain the potential for differentiation of cultures. Cells grown to approximately 70% confluence in T75 culture flasks were treated with trypsin and seeded in various P100 culture dishes. Cells were then cultured in the presence of 10% FBS until they reach about 90% confluence, at which point the medium was replaced with DMEM containing 2% horse serum for the induction of differentiation in myotubes. During this time, the fused myoblasts formed elongated, multi-nucleated myotubes, and within 7 days more than 95% of the cells already fused into myotubes. Cultures of C2C12 were treated with phosphate buffer saline (137 mM NaCl, 2.7 mM KCl, 10 mM Na2HPO4, and 1.8 mM KH2PO4, pH 7.4; PBS; control), insulin or […], for the indicated period of time. From these treatments the cells were processed for molecular analyses. Real-time PCR (qPCR) experiments were performed to evaluate the mRNA expression levels, at basal and under stimulus, for peroxisome proliferator activator receptor gamma (PPARγ), peroxisome proliferator activator receptor […] responsive element binding protein 1 (Creb1), aldolase A, fructose-bisphosphate (ALDOA), cytochrome c oxidase subunit IV isoform 1 (Cox4i1), phosphoglycerate mutase 2 (PGAM2), troponin I, skeletal, fast 2 (TNNI2), […] (TNNT3), small muscle protein X-linked (SMPX), myosin, […] (MYH1), insulin-growth factor 1 (IGF1), Glucose transporter 4 (GLUT4), and lipoprotein lipase (LPL). Primers sequences are described in Supplementary Materials (Table S1). Cells were homogenized and total RNA extracted using Trizol according to the manufacturer's instructions (TRIzol, Life Technologies, Rockville, MD, USA). After extraction of RNA, all samples were purified and treated with DNAse using RNeasy Mini Kit (Qiagen, Foster City, CA, USA). The integrity of the RNA was verified by 1% agarose gel electrophoresis stained with ethidium bromide and visualized in ultraviolet light. […] The standard curves for all the primers used herein were previously constructed to determine the efficiency of the amplification of the target and reference genes. Quantitative PCRs were performed using the Prism 7900 sequence detection system (Applied Biosystems, Foster City, CA, USA) with 100 nM primer and 20 ng cDNA. The expression of mRNA targets was normalized by expression of gene glyceraldehyde 3-phosphate dehydrogenase (GAPDH) or hipoxantina-guanina fosforibosiltransferase (HPRT) and expressed as relative values using the 2 DDCt method. The expression levels of target genes were normalized with housekeeping genes GAPDH or HPRT, and alterations were expressed relative to control unstimulated cells. […] Therefore, the possible effects of Ric1-Ric4 (100 μM) on gene expression were evaluated. For all these experiments, insulin was used as “gold standard”/positive control, and GAPDH expression was used as normalization control (Table 2, Control “1”/100%). Relative to GAPDH expression, insulin increased the expression of all genes evaluated (Table 1). […]

Substance: LASVSTVLTSKYR [Ric4, intracellular peptide derived from hemoglobin alpha subunit, last 13 C-terminal amino acids]
- relative expression of Aldolase A, fructose-bisphosphate (ALDOA): 4.22 ± 0.74
- relative expression of Cytochrome c oxidase subunit IV isoform 1 (Cox4i1): 1.41 ± 1.12
- relative expression of Peroxisome proliferator activator receptor gamma (PPARγ): 1.21 ± 1.02
- relative expression of Phosphoglycerate mutase 2 (PGAM2): 2.65 ± 0.87
- relative expression of Small muscle protein X-linked (SMPX): 3.21 ± 0.99
- relative expression of Troponin I, skeletal, fast 2 (TNNI2): 3.14 ± 0.65
- relative expression of Troponin I, skeletal, fast 3 (TNNT3): 2.38 ± 0.72
- relative expression of cAMP responsive element binding protein 1 (Creb1): 1.03 ± 0.85

Substance: Insulin
- relative expression of Aldolase A, fructose-bisphosphate (ALDOA): 7.65 ± 0.96
- relative expression of Cytochrome c oxidase subunit IV isoform 1 (Cox4i1): 6.71 ± 1.24
- relative expression of Peroxisome proliferator activator receptor gamma (PPARγ): 6.98 ± 1.23
- relative expression of Phosphoglycerate mutase 2 (PGAM2): 8.26 ± 0.99
- relative expression of Small muscle protein X-linked (SMPX): 5.96 ± 0.98
- relative expression of Troponin I, skeletal, fast 2 (TNNI2): 6.36 ± 1.13
- relative expression of Troponin I, skeletal, fast 3 (TNNT3): 6.22 ± 0.98
- relative expression of cAMP responsive element binding protein 1 (Creb1): 6.48 ± 1.08
